Test results published in ChEMBL document CHEMBL2434883, “Novel heterocyclic-fused pyrimidine derivatives: synthesis, molecular modeling and pharmacological screening” (Eur J Med Chem, 2013).
In brackets after ≈: the same amount, converted by molar mass.

How the values were obtained:
[1] = biological target: Proto-oncogene tyrosine-protein kinase Src (Homo sapiens) (UniProt P12931); assay: Inhibition of c-Src (unknown origin) using [33P]-ATP as substrate at 10 uM after 30 mins by scintillation counting analysis relative to control
[2] = tested on: MCF7; assay: Cytotoxicity against human MCF7 cells after 48 hrs by SRB assay; format: functional, cell-based; details: MCF7, 48 h
[3] = organism: Homo sapiens; assay: Inhibition of VEGFR (unknown origin) using [33P]-ATP as substrate at 10 uM after 30 mins by scintillation counting analysis relative to control

Chain of Proto-oncogene tyrosine-protein kinase Src (Homo sapiens) (P12931 2-536 limits assumed): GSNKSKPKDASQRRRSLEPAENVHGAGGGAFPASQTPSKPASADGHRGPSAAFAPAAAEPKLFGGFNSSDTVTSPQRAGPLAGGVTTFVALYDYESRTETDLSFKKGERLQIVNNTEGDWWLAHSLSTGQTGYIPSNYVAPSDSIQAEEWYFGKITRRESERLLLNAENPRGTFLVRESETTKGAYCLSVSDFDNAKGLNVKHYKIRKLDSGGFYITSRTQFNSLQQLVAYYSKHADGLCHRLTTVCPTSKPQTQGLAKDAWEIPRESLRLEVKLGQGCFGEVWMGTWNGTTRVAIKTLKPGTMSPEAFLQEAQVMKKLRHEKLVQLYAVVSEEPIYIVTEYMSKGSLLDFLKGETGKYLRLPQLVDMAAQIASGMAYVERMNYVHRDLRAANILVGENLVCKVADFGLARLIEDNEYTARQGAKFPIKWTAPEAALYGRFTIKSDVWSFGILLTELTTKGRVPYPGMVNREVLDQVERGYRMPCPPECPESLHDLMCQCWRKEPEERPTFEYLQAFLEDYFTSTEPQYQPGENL

Row | SMILES | inhibition [1] | IC50 [2] | inhibition [3]
1 | N=c1c2c([nH]c(=O)n1-c1ccccc1)N(c1ccccc1)C(=O)N1CCCC21 (stereo not given) | 0% | 9.6 µg/mL (≈ 25.7 µM) | 11%
2 | Nc1nc(=S)[nH]c2c1C1CCCCCN1C(=O)N2c1ccccc1 (stereo not given) | – | 10.8 µg/mL (≈ 31.6 µM) | –
3 | N#CC1=C(NC(=O)Nc2ccccc2)N(c2ccccc2)C(=S)N2CCCC12 (stereo not given) | – | 14.2 µg/mL (≈ 36.5 µM) | –
4 | NNc1ncnc2c1C1CCCN1C(=O)N2c1ccccc1 (stereo not given) | – | 11 µg/mL (≈ 37.1 µM) | –
5 | O=C1N(c2ccccc2)c2nc[nH]c(=O)c2C2CCCCCN12 (stereo not given) | 81% | 11.2 µg/mL (≈ 36.1 µM) | 3%
6 | O=c1sc(=S)[nH]c2c1C1CCCN1C(=S)N2c1ccccc1 (stereo not given) | – | 18.8 µg/mL (≈ 54.1 µM) | –
7 | Cc1ccc(NC(=O)CNC2=C(C#N)C3CCCN3C(=O)N2c2ccccc2)cc1 (stereo not given) | – | 21.6 µg/mL (≈ 53.8 µM) | –
8 | O=c1[nH]cnc2c1C1CCCN1C(=S)N2c1ccccc1 (stereo not given) | – | 20 µg/mL (≈ 67 µM) | –
9 | N#CC1=C(NC(=S)Nc2ccccc2)N(c2ccccc2)C(=O)N2CCCC12 (stereo not given) | – | 16.6 µg/mL (≈ 42.6 µM) | –
10 | O=C1N(c2ccccc2)c2[nH]c(=S)sc(=O)c2C2CCCCCN12 (stereo not given) | – | 14 µg/mL (≈ 38.9 µM) | –
11 | O=C1N(c2ccccc2)c2[nH]c(=S)nc(/N=C/c3ccc(Cl)cc3)c2C2CCCN12 (stereo not given) | – | 12.4 µg/mL (≈ 28.4 µM) | –
12 | N#CC1=C(NC(=O)Nc2ccccc2)N(c2ccccc2)C(=O)N2CCCC12 (stereo not given) | – | 19.8 µg/mL (≈ 53 µM) | –
13 | N#CC1=C(N2C(=O)CN(c3ccccc3)C2=O)N(c2ccccc2)C(=O)N2CCCC12 (stereo not given) | – | 18.6 µg/mL (≈ 45 µM) | –
14 | O=C1N(c2ccccc2)c2nc[nH]c(=O)c2C2CCCN12 (stereo not given) | – | 14.8 µg/mL (≈ 52.4 µM) | –
15 | N#CC1=C(N2C(=O)C(=O)N(c3ccccc3)C2=O)N(c2ccccc2)C(=O)N2CCCC12 (stereo not given) | 45% | 10.8 µg/mL (≈ 25.3 µM) | 25%
16 | Nc1nc(=S)[nH]c2c1C1CCCN1C(=S)N2c1ccccc1 (stereo not given) | – | 22.8 µg/mL (≈ 69.2 µM) | –
17 | O=C1N(c2ccccc2)c2[nH]c(=S)nc(/N=C/c3ccc(Cl)cc3)c2C2CCCCCN12 (stereo not given) | – | 10.6 µg/mL (≈ 22.8 µM) | –
18 | N#CCC(=O)NC1=C(C#N)C2CCCN2C(=O)N1c1ccccc1 (stereo not given) | 0% | 12.8 µg/mL (≈ 39.8 µM) | 0%
19 | N#CC1=C(NC(=S)Nc2ccccc2)NC(=S)N2CCCC12 (stereo not given) | – | 20.8 µg/mL (≈ 63.1 µM) | –
20 | Nc1nc(=S)[nH]c2c1C1CCCN1C(=O)N2c1ccccc1 (stereo not given) | – | 13.6 µg/mL (≈ 43.4 µM) | –
21 | Cc1ccc(NC(=O)CNC2=C(C#N)C3CCCN3C(=S)N2c2ccccc2)cc1 (stereo not given) | – | 12.8 µg/mL (≈ 30.7 µM) | –
22 | O=C1N(c2ccccc2)c2[nH]c(=S)sc(=O)c2C2CCCN12 (stereo not given) | – | 17 µg/mL (≈ 51.3 µM) | –
